Test results as given in patent US5679671A, “Amino acid derivative” (Eisai Co., Ltd., priority 1993, dated 1997).
One block for each compound: values may come before it.

Assays:
[1] = Blood level and bioavailability in rats (Experiment E-2); conditions: rat, blood, po
Source text: Then changes in the blood level of each medicament were monitored with the lapse of time by using liquid chromatography.

SHR = assay: Effect by oral administration on SHR, tail cuff method (Experiment C-6); format: in vivo, Spontaneously hypertensive male rats
Protocol: By using Spontaneously hypertensive male rats (aged 16 to 17 weeks), the compound of Example C-8 and a comparative compound [S-(R*,R*)]-2,3,4,5-tetrahydro-3-[(2-mercapto-1-oxohexyl)amino]-2-oxo-1H-benzazepine-1-acetic acid having the following structure each dissolved in 0.5% methylcellulose were orally administered thereto. Hypotensive effects were measured by the tail cuff method and data obtained before the oral administration and 2, 4 and 8 hours after the administration were compared. […] Accordingly, the compound of Example C-8 has an activity about 10 times as high as that of the comparative compound. [drawing 35]

[2] = target: T1, vasopressin (V1) receptor (Rattus norvegicus, UniProt P30560); assay: V1 receptor binding assay, rat liver membrane (Experiment E-3); conditions: [3H]-Arg-vasopressin, pH 7.4
T1 construct: Membrane specimens of rat liver (V1); from tissue; host or cells: rat liver membranes
Protocol: Membrane specimens of rat liver (V1) and rat kidney (V2) were used. 100,000 counts (3.69 nM) of [^3 H]-Arg-vasopressin, 25 μg (1 mg protein/ml) of each membrane specimen and a test medicament (10^-7 to 10^-5 M) were incubated in a total volume of 250 μl of an assay buffer (pH=7.4) containing 10 mM of MgCl2, 2 mM of EGTA and 20 mM of HEPES at 4° C. over day and night. Then, the incubation was washed with 5-ml portions of the buffer 5 times to thereby separate the membrane specimen binding to vasopressin followed by filtration with the use of a glass filter (GF/F). This glass filter was dried for about 3 hours and mixed with a cocktail for liquid scintillation (10 ml, ACSII). After allowing to stand overnight, the amount of the [^3 H]-Arg-vasopressin binding to the membrane was determined with a liquid scintillation counter and the inhibition ratio was calculated in accordance with the following formula: […]
B1; the amount of [^3 H]-Arg-vasopressin binding to the membrane in the presence of excessive vasopressin (10 μM)
C0; the amount of [^3 H]-Arg-vasopressin binding to the membrane in the absence of the test medicament and
C1; the amount of [^3 H]-Arg-vasopressin binding to the membrane in the presence of both the test medicament in a known amount and [^3 H]-Arg-vasopressin. […]

T1 sequence (P30560 whole entry): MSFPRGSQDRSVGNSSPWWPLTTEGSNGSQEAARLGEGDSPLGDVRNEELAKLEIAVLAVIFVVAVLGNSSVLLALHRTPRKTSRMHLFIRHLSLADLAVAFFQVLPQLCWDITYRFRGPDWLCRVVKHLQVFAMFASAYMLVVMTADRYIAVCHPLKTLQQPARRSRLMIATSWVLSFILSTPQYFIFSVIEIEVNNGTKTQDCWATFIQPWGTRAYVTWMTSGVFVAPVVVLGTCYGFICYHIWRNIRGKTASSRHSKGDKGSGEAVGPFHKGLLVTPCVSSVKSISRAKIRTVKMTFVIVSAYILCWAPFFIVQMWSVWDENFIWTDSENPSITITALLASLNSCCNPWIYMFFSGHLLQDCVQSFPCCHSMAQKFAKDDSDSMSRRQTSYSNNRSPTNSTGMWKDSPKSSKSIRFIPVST

- bioavailability ([1]; 10 mg/kg): 4.3%
- bioavailability ([1]; 30 mg/kg): 7.8%
SMILES: O=C(N[C@H]1Cc2ccccc2[C@H]2CCC[C@@H](C(=O)O)N2C1=O)[C@@H](S)Cc1ccccc1 [Comp. cpd. E-1, [4S-[4α,7α(R*),12bβ]]-7-[(1-oxo-2-(S)-thio-3-phenyl-propyl)amino]-1,2,3,4,6,7,8,12b-octahydro-6-oxopyrido-[2,1-a][2]benzazepine-4-carboxylic acid, reference compound]

SMILES: CC[C@H](C)[C@H](S)C(=O)N[C@H]1CCC[C@H]2SC[C@@H](C(=O)O)N2C1=O [Example C-8, [3R-[3α,6α,(S*),9aβ]]-6-[[(2S,3S)-3-methyl-1-oxo-2-thiopentyl]amino]-octahydro-5-oxothiazol[3,2-a]-azepine-3-carboxylic acid]
- hypotensive effect (tail cuff method) (SHR; 1.0 mg/kg oral, before and 2, 4 and 8 hours after): comparable to the one achieved by 10 mg/kg of the above comparative compound
- activity relative to the comparative compound (SHR; oral, SHR): about 10 times

- IC50 [2]: ≥ 10 µM
SMILES: CC(C)[C@H](S)C(=O)N[C@H]1Cc2ccc(-c3ccccc3)cc2[C@H]2CCC[C@@H](C(=O)O)N2C1=O [Example E-10, [4S-[4α,7α(R*),12bβ]]-7-[(S)-2-Mercapto-3-methylbutyrylamino]-6-oxo-11-phenyl-1,2,3,4,6,7,8,12b-octahydropyrido[2,1-a][2]benzazepine-4-carboxylic acid]
